The values below come from patent US8445504B2, “Tricyclic pyrazolopyrimidine derivatives” (Daiichi Sankyo Company, Limited, priority 2009, dated 2013).

Data set [1] concerns the target T1, recombinant yeast Hsp90 protein (rHsp90) (Saccharomyces cerevisiae, UniProt P02829).
T1 construct: made in house; host or cells: Escherichia coli
Put plainly: Hsp90 ATPase assay. The class given is biochemical. Particulars: at a concentration of 2 μM; 100 μM ATP, 37° C., two hours; read-out: ATPase inhibitory activity. The procedure: An Hsp90 ATPase assay was performed using a recombinant yeast Hsp90 protein (hereinafter called rHsp90). Yeast Hsp90 DNA was cloned from a yeast genomic DNA library according to a conventional method. The cloned yeast Hsp90 DNA was incorporated into a plasmid for expression in Escherichia coli, and the plasmid was expressed in Escherichia coli to obtain rHsp90.
The test compound was dissolved in DMSO to 10 mM. The dissolved solution was diluted with DMSO to two concentrations, 1 mM and 0.2 mM. Each diluted solution was further 10-fold diluted with an assay buffer (100 mM Tris, pH 7.4, 20 mM KCl, 6 mM MgCl2) (concentration of each test compound solution: 100 μM and 20 μM; DMSO concentration: 10%).
rHsp90 was dissolved in a TE buffer (20 mM Tris, pH 7.4, 1 mM EDTA) to a concentration of 2.531 mg/mL. The solution was diluted with an assay buffer to 125 μg/mL and dispensed to a 96-well assay plate at 40 μL per well (final concentration: 100 μg/mL).
The test compound solution was dispensed at 5 μL per well, and then the solutions in the respective wells were mixed using a plate mixer. 100 mM ATP (Sigma, Catalog No. A-7699) was diluted with an assay buffer to 1 mM and dispensed at 5 μL per well (final concentration: 100 μM). The solutions in the respective wells were mixed using a plate mixer, and then the assay plate was allowed to stand in an incubator set at 37° C. for two hours.
BIOMOL GREEN Reagent (BIOMOL, Catalog No. AK-111) was dispensed at 100 μL per well, and the reaction was terminated. The solutions in the respective wells were mixed using a plate mixer, and then 34% sodium citrate was dispensed at 10 μL per well. The solutions in the respective wells were mixed using a plate mixer, and then the assay plate was left to stand at room temperature for 30 minutes. The absorbance at 650 nm of each well was measured using SpectramaxPLUS (Molecular Devices).
The ratio of the absorbance of the test compound-added group to the absorbance of the test compound-free group (T/C value) was determined by the following calculation formula, based on the assumption that the absorbance of the well to which the test compound and rHsp90 were added was A, the absorbance of the well to which only rHsp90 was added was B, and the absorbance of the well to which neither the test compound nor rHsp90 was added was C. The calculation was carried out using Softmax Pro 4.6 (Molecular Devices). Furthermore, an inhibition rate (%) was calculated using the following calculation formula: T/C=(A−C)/(B−C)

Data set [2] relates to human breast cancer cell line SK-BR-3. The data set can be described thus: Cell growth inhibition assay (MTT), SK-BR-3. Particulars: SK-BR-3, 72 hours. The class given is cell-based. The procedure:
(§1) A cell growth inhibition assay was performed using two types of cells (human breast cancer cell line SK-BR-3 and human lung cancer cell line NCI-H460).
(§2) Cells of each type were suspended in a medium and seeded into a 96-well multi-well plate at 2000 cells/150 μL/well in the case of SK-BR-3 and at 500 cells/150 μL/well in the case of NCI-H460. The test compound was dissolved in DMSO, and this was diluted with medium to prepare a sample solution (DMSO concentration: 0.5% or less). On the day following the seeding, 50 μL of DMSO-containing medium to which the test compound was not added (hereinafter called DMSO diluted solution; DMSO concentration: 0.5% or less) or 50 μL of the sample solution was further added to the cells. An MTT assay was performed immediately after and 72 hours after adding the sample solution or the DMSO diluted solution to the cells. The MTT assay was performed as follows.
(§3) 5 mg/mL of an MTT (3-(4,5-dimethylthiazol-2-yl)-2,5-diphenyltetrazolium bromide) solution was added at 20 μL per well. Thereafter, the plate was incubated at 37° C. in 5% CO2 for four hours. The plate was centrifuged at 1200 rpm for five minutes, and then the culture supernatant was removed by suction using a dispenser. DMSO was added at 150 μL per well, and the generated formazan was dissolved. The plate was stirred using a plate mixer to uniformly color the respective wells. The absorbance of each well was measured using a plate reader at an OD of 540 nm with a reference of 660 nm.
(§4) T/C (%) for each concentration was determined by the following calculation formula and a dose-response curve was drawn to calculate the 50% growth inhibitory concentration (GI50 value), based on the assumption that the OD value measured immediately after adding the sample solution was S, the OD value measured 72 hours after adding the sample solution was T, and the OD value measured 72 hours after adding the DMSO diluted solution was C. T/C (%)=(T−S)/(C−S)×100 The results are shown below.

The subject of data set [3] is human lung cancer cell line NCI-H460. Put plainly: Cell growth inhibition assay (MTT), NCI-H460. The class given is cell-based. The following applies: NCI-H460, 72 hours. The procedure: as §1, §2, §3, §4
A further data set addresses CYP3A4 (Homo sapiens, UniProt P08684). The data set can be described thus: in vitro. The following applies: microsomes, pH 7.4. As for the experimental part:
Appropriate amounts of such test compound, substrate, target to be measured, and positive control were weighed. They were dissolved in DMSO, and were then diluted with acetonitrile, as appropriate.
180 μl of a reaction solution prepared by mixing the following (1) to (5) had previously been warmed at 37° C. for 10 minutes:
(1) Potassium phosphate buffer (pH 7.4; final concentration: 50 mM)
(3) Midazolam (final concentration: 2.5 μM)
(5) Human hepatic microsome (final concentration: 0.05 mg-P/ml)
20 μl of the NADPH Regeneration System (solution A/solution B/purified water=5/1/4) was added to this reaction solution, and the reaction was initiated. The mixture was incubated for 10 minutes. Thereafter, 50 μl of the reaction solution was sampled, and it was then added to 200 μl of acetonitrile, followed by the termination of the reaction. Further, 50 μl of an acetonitrile solution containing an internal standard substance was added to the reaction solution.
In order to remove proteins from this sample, the reaction solution was transferred to a 96-Well Collection Plate (Waters) using Captiva (registered trademark) (GL Sciences). This sample solution was defined as a sample used for the assay of LC-MS/MS.
Samples of 1′-Hydroxymidazolam having known concentrations (final concentrations: 0 to 5 μM; total 5 points) were prepared, separately. A calibration curve used for assay was prepared, and the concentration of 1′-Hydroxymidazolam in the sample was assayed. This reaction was carried out in a duplicated manner.
The amount of 1′-Hydroxymidazolam generated in the negative control was defined as 100%, and the ratio of the amount of this compound generated by addition of each compound was then calculated. Thus, the inhibition value of CYP3A4 was obtained.

Chain of CYP3A4 (P08684 whole entry): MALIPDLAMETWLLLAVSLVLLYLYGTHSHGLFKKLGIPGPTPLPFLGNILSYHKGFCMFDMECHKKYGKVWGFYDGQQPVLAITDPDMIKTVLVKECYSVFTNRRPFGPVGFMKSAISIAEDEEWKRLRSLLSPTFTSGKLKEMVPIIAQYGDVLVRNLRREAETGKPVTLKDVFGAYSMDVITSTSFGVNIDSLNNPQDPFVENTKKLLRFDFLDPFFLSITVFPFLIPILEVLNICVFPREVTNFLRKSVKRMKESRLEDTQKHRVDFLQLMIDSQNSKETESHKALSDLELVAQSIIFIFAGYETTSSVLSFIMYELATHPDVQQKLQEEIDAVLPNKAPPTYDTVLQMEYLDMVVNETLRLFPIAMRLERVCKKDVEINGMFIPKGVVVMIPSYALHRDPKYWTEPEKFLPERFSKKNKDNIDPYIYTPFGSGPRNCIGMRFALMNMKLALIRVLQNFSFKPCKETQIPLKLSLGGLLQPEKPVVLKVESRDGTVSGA
T1 sequence (P02829 whole entry): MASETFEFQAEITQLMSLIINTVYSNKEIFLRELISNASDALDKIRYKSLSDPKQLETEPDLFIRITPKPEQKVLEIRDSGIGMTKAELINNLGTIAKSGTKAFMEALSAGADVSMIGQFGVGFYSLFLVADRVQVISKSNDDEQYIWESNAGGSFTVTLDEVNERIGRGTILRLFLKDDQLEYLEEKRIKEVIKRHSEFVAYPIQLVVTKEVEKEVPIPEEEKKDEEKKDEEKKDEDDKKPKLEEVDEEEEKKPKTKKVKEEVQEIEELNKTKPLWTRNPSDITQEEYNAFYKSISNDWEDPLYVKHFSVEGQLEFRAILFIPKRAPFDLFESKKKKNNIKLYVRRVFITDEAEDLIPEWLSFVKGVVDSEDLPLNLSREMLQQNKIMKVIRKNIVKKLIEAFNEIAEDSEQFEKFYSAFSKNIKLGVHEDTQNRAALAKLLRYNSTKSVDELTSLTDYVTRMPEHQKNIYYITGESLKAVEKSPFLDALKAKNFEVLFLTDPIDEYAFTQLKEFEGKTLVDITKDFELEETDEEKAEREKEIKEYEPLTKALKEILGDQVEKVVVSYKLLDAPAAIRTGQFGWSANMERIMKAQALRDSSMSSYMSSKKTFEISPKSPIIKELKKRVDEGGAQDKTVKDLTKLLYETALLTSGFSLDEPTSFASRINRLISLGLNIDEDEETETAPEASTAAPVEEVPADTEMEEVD

Take `COc1c(C)cnc(Cn2nc3c4c(nc(N)nc42)SCC(CC(=O)NCCF)=C3)c1Cl` [Compound 5, 2-{4-Amino-2-[(3-chloro-4-methoxy-5-methylpyridin-2-yl)methyl]-2,7-dihydro-6-thia-1,2,3,5-tetraazabenzo[cd]azulen-8-yl}-N-(2-fluoroethyl)acetamide]: the inhibition at 2 µM in data set [1] is no less than 50%. The concentration for 50% growth inhibition (GI50) (usually the concentration that inhibits growth by half) in data set [2] was found to be 16 nM; in data set [3], 36 nM. At CYP3A4, the inhibition at 10 min, 10 μM came to 66%.
As for `CNC(=O)CC1=Cc2nn(Cc3ncc(F)c(OC)c3C)c3nc(N)nc(c23)SC1` [Compound 2, 2-{4-Amino-2-[(5-fluoro-4-methoxy-3-methylpyridin-2-yl)methyl]-2,7-dihydro-6-thia-1,2,3,5-tetraazabenzo-[cd]azulen-8-yl}-N-methylacetamide], the inhibition at 2 µM in data set [1] is no less than 50%. In addition, the concentration for 50% growth inhibition (GI50) in data set [2] was found to be 39 nM; in data set [3] it was 90 nM. Further, the inhibition at 10 min, 10 μM against CYP3A4 turned out to be 58%.
The like results for `CNC(=O)CC1=Cc2nn(Cc3ncc(C)c(OC)c3Br)c3nc(N)nc(c23)SC1` [Compound 3, 2-{4-Amino-2-[(3-bromo-4-methoxy-5-methylpyridin-2-yl)methyl]-2,7-dihydro-6-thia-1,2,3,5-tetraazabenzo[cd]azulen-8-yl}-N-methylacetamide] were, in that order, no less than 50%, 14 nM, 30 nM and 5%.
In the case of `COc1c(C)cnc(Cn2nc3c4c(nc(N)nc42)SCC(CC(N)=O)=C3)c1Br` [Compound 4, 2-{4-Amino-2-[(3-bromo-4-methoxy-5-methylpyridin-2-yl)methyl]-2,7-dihydro-6-thia-1,2,3,5-tetraazabenzo[cd]azulen-8-yl}acetamide mesilate], in data set [1], the inhibition at 2 µM is no less than 50%. In addition, the GI50 in data set [2] is 11 nM; in data set [3], 22 nM. Further, on CYP3A4, the inhibition at 10 min, 10 μM is 43%.
For the compound `COc1ccnc(Cn2nc3c4c(nc(N)nc42)SCC(C(=O)NCC(F)F)=C3)c1Cl` [Compound 6, 4-Amino-2-[(3-chloro-4-methoxypyridin-2-yl)methyl]-N-(2,2-difluoroethyl)-2,7-dihydro-6-thia-1,2,3,5-tetraazabenzo[cd]azulen-8-carboxamide], in data set [1], the inhibition at 2 µM was no less than 50%. Moreover, the 50% growth inhibitory concentration (GI50) stood at 45 nM in data set [2] and 110 nM in data set [3]. The inhibition at 10 min, 10 μM against CYP3A4 was -18%.
With `CNC(=O)CC1=Cc2nn(Cc3ncc(C)c(OC)c3Cl)c3nc(N)nc(c23)SC1` [Compound 1, 2-{4-Amino-2-[(3-chloro-4-methoxy-5-methylpyridin-2-yl)methyl]-2,7-dihydro-6-thia-1,2,3,5-tetraazabenzo[cd]azulen-8-yl}-N-methylacetamide], the inhibition at 2 µM in data set [1] was no less than 50%. Besides, the GI50 in data set [2] worked out at 13 nM; in data set [3], 26 nM. At CYP3A4, the inhibition at 10 min, 10 μM stood at 15%.
